Results on one compound are retold here after US11932610B1, “4-(5-(3-fluorophenyl)-4-phenyl-4H-1,2,4-triazol-3-ylthio)butanoic acid as an antimicrobial compound” (priority 2023, dated 2024).

SMILES strings stand for the structures.

As usually defined, the melting point is the temperature, or range, at which the solid turns liquid.

For data set [1], the system named is Bacillus cereus, Staphylococcus aureus, Pseudomonas aeruginosa, Escherichia coli, Aspergillus flavus, Chrysosporium keratinophilum. Put plainly: agar plate disc-diffusion antimicrobial test. Format: cell-based. Particulars: 6 mm discs wetted with 10 μL of 10 mg/mL in DMSO; 37° C., 48 h (72 h for fungi); DMSO control zone subtracted. On the procedure:
The agar plate disc-diffusion method was applied. Sterilized filter papers (6 mm in diameter) were wetted with 10 μL of a solution of 4-(5-(3-fluorophenyl)-4-phenyl-4H-1,2,4-triazol-3-ylthio)butanoic acid (III) to be tested, containing 10 mg/mL in DMSO, and the discs were allowed to air dry. The discs were then placed onto the surface of agar plates (nutrient agar for bacteria and Sabouraud's dextrose agar for fungi) seeded with the test organism. Each plate contained 15 mLof the agar medium, previously seeded with 0.2 mL of the broth culture of each organism pregrown for 18 h. The plates were incubated at 37° C. for 48 h, and 72 h for fungi. The inhibition zones was measured in mm. Discs impregnated with DMSO were used as a control, and its inhibition zone was subtracted from the tested compound actual inhibition zone. […] The antibacterial activity was screened against gram positive bacteria namely Bacillus cereus and Staphylococcus aureus and gram-negative bacterial strains namely Pseudomonas aeruginosa and Escherichia coli, while the antifungal activity was screened against Aspergillus flavus and Chrysosporium keratinophilum.

With `O=C(O)CCCSc1nnc(-c2cccc(F)c2)n1-c1ccccc1` [III, 4-(5-(3-fluorophenyl)-4-phenyl-4H-1,2,4-triazol-3-ylthio)butanoic acid], the melting point turned out to be 173 °C. The “antimicrobial activities against different microbes” value in data set [1] is “excellent antimicrobial activities”.
